Measurements published in US20250290117A1, “MOLECULAR PHENOTYPIC ANTIMICROBIAL SUSCEPTIBILITY TESTING” (priority 2024, published 2025).

Assays:
M. morganii = assay: Molecular phenotypic antimicrobial susceptibility test, specimen with two detected pathogens incubated together without isolation; assay type: cell-based, Morganella morganii; conditions: M. morganii in specimen with two detected pathogens (E. coli and M. morganii) incubated together; for Ct of Sensitive Breakpoint: Ct of controls (average) 19.99; for Molecular Antimicrobial Susceptibility Result: at sensitive breakpoint
Protocol: (§1) Detection of Molecular Phenotypic Antimicrobial Susceptibility. Disclosed herein are the methods for the detection of phenotypic antimicrobial susceptibility via molecular methods. The present invention describes how a specimen 100 with a known microbial load is incubated and then exposed to a panel of antimicrobial agents to determine sensitivity (prevention of growth) or resistance (allowance of growth) to the specific antimicrobial agents tested utilizing molecular methods.
Sample Collection. Specimens 100 are collected from patients using sterile collection processes that are employed in routine clinical care. Specimens are transported to the testing facility in boric acid preservative. Specimens 100 are subsequently divided into a first sample 104 and a second sample 108.
Preparation of the Specimens for Testing. The specimens 100 are put through a pathogen identification process using PCR technology (e.g., using the first sample 104). The process for pathogen isolation includes steps of harvesting the pathogen (e.g., via centrifugation), isolating pathogen DNA via a DNA isolation and/or purification kit, and performing PCR on the pathogen DNA via PCR components (e.g., primers, enzymes, buffers) as would be known to the skilled artisan. Simultaneously, an additional aliquot of the same specimen (e.g., the second sample 108) is placed with liquid culture media and incubated for 4-6 hours. This aliquot is used for antimicrobial susceptibility testing if indicated based on the pathogen detection results. After pathogen identification is completed and if more than 10,000 cells/mL of bacteria (e.g., eligible bacteria) are detected in the source specimen, the second sample 108 then enters the antimicrobial susceptibility phase of testing. Specimens 100 with lower pathogen loads could also be utilized in the antibiotic susceptibility phase of testing with or without a longer incubation period.
(§2) Preparation of Antimicrobial Susceptibility Testing Plates. Antimicrobial solutions are prepared at known concentrations. The specific antimicrobials and their concentrations are selected based on the pathogen of interest and the described antimicrobial resistance breakpoints for that specimen pathogen and antimicrobial combination. These antimicrobials have been selected based on those commonly utilized by healthcare providers in routine clinical care for the specific type of suspected infection. The number and types of antimicrobials utilized can be customized based on the infection source, pathogen detected, patient-specific factors such as allergies or other health conditions (e.g., chronic kidney disease or concurrent medication use), or healthcare provider preferences such as antimicrobial availability or cost.
The antimicrobial solutions are prepared in liquid culture media (such as Muller Hinton Broth) to achieve the desired antimicrobial concentration and are then stored at −80° C. until use. For a given specimen, each antimicrobial is tested at a single or multiple antimicrobial concentration(s) which is its established breakpoints for sensitivity. The antimicrobial solutions are prepared and plated out for each specific pathogen. This allows ease of use on the day of testing after defrosting the plate 112. Table 1, which illustrates the results of molecular phenotypic antimicrobial susceptibility testing when more than one organism is present in the source specimen, provides an example of an antimicrobial plate 112 prepared for this purpose. Of note, control wells containing only culture media are present on all plates 112. This allows for evaluation of pathogen load when no antimicrobial is present.
Specimen Exposure to Antimicrobial Agents. The 1 mL aliquot of the specimen 100 previously mixed with culture media and incubated is obtained. Using optical density measurements as a guide, the specimen 100 is diluted to 0.5 McFarland. […]

Escherichia coli = assay: Molecular phenotypic antimicrobial susceptibility test (extraction or DNA purification prior to PCR); assay type: cell-based
Protocol: as §1
Sample Collection. Specimens 100 are collected from patients using sterile collection processes that are employed in routine clinical care. Specimens are transported to the testing facility in boric acid preservative.
Preparation of the Specimens for Testing. […] The process for pathogen isolation includes steps of harvesting the pathogen (e.g., via centrifugation), isolating pathogen DNA via a DNA isolation and/or purification kit, and performing PCR on the pathogen DNA via PCR components (e.g., primers, enzymes, buffers) as would be known to the skilled artisan. […] This aliquot is used for antimicrobial susceptibility testing if indicated based on the pathogen detection results. […] Specimens 100 with lower pathogen loads could also be utilized in the antibiotic susceptibility phase of testing with or without a longer incubation period.
as §2
The antimicrobial solutions are prepared in liquid culture media (such as Muller Hinton Broth) to achieve the desired antimicrobial concentration and are then stored at −80° C. until use. For a given specimen, each antimicrobial is tested at a single or multiple antimicrobial concentration(s) which is its established breakpoints for sensitivity. The antimicrobial solutions are prepared and plated out for each specific pathogen. […] This allows for evaluation of pathogen load when no antimicrobial is present.
Specimen Exposure to Antimicrobial Agents. The 1 mL aliquot of the specimen 100 previously mixed with culture media and incubated is obtained. Using optical density measurements as a guide, the specimen 100 is diluted to 0.5 McFarland.
Antimicrobial exposure plates are typically placed into an incubator for 12-16 hours.
Nucleic Acid Amplification of Antimicrobial Agent Exposed Pathogens. The antimicrobial exposure plate is removed after the period of incubation. The specimen then undergoes a purification or lysis step. For example, the specimen may undergo a purification step (e.g., magnetic bead-based or other separation protocol to isolate genetic material). In another example, the specimen may undergo a cell lysis step. For example, buffer (e.g., lysis buffer) may be added and incubated in the thermal cycler for preparation for direct PCR. Next, the specimen may undergo a polymerase chain reaction (PCR) testing protocol, whereby a semi-quantitative PCR method is utilized. This may be completed either with or without a specific extraction protocol step. The pathogens can be individually targeted and detected, or a universal genetic sequence can be utilized to detect the antimicrobial susceptibility of the specimen as a whole.

[1] = E. coli isolate 1, Ct at control (average) 21.238
[2] = E. coli isolate 1, at sensitive breakpoint
[3] = E. coli isolate 2, Ct at control (average) 21.270
[4] = E. coli isolate 2, at sensitive breakpoint
[5] = E. coli isolate 3, Ct at control (average) 22.0995
[6] = E. coli isolate 3, at sensitive breakpoint
[7] = E. coli isolate 4, Ct at control (average) 17.5733
[8] = E. coli isolate 4, at sensitive breakpoint
[9] = E. coli isolate 5, Ct at control (average) 21.0933
[10] = E. coli isolate 5, at sensitive breakpoint

Molecule	Ct of Sensitive Breakpoint (M. morganii)	Molecular Antimicrobial Susceptibility Result (M. morganii)	Ct at Sensitive Breakpoint (Escherichia coli; [1])	Molecular Antimicrobial Susceptibility Result (Escherichia coli; [2])	Ct at Sensitive Breakpoint (Escherichia coli; [3])	Molecular Antimicrobial Susceptibility Result (Escherichia coli; [4])	Ct at Sensitive Breakpoint (Escherichia coli; [5])	Molecular Antimicrobial Susceptibility Result (Escherichia coli; [6])	Ct at Sensitive Breakpoint (Escherichia coli; [7])	Molecular Antimicrobial Susceptibility Result (Escherichia coli; [8])	Ct at Sensitive Breakpoint (Escherichia coli; [9])	Molecular Antimicrobial Susceptibility Result (Escherichia coli; [10])
C[C@@H](O)[C@H]1C(=O)N2C(C(=O)O)=C(S[C@@H]3CN[C@H](C(=O)N(C)C)C3)[C@H](C)[C@H]12 [Meropenem]	29.99	Sensitive (Antimicrobial wells with pathogen load detected below the control wells (typically >2 cycle thresholds later) may be reported as Sensitive)	33.626	Sensitive (Antimicrobial wells with pathogen load detected below the control wells (typically >2 cycle thresholds later) may be reported as Sensitive)	29.525	Sensitive (Antimicrobial wells with pathogen load detected below the control wells (typically >2 cycle thresholds later) may be reported as Sensitive)	23.588	Sensitive (Antimicrobial wells with pathogen load detected below the control wells (typically >2 cycle thresholds later) may be reported as Sensitive)				
O=C1CN(/N=C/c2ccc([N+](=O)[O-])o2)C(=O)N1 [Nitrofurantoin]	33.37	Sensitive (Antimicrobial wells with pathogen load detected below the control wells (typically >2 cycle thresholds later) may be reported as Sensitive)	35.690	Sensitive (Antimicrobial wells with pathogen load detected below the control wells (typically >2 cycle thresholds later) may be reported as Sensitive)	30.495	Sensitive (Antimicrobial wells with pathogen load detected below the control wells (typically >2 cycle thresholds later) may be reported as Sensitive)	21.722	Sensitive (Antimicrobial wells with pathogen load detected below the control wells (typically >2 cycle thresholds later) may be reported as Sensitive)	32.06	Sensitive (Antimicrobial wells with pathogen load detected below the control wells (typically >2 cycle thresholds later) may be reported as Sensitive)	33.53	Sensitive (Antimicrobial wells with pathogen load detected below the control wells (typically >2 cycle thresholds later) may be reported as Sensitive)
Ampicillin/Sulbactam	22.00	Sensitive (Antimicrobial wells with pathogen load detected below the control wells (typically >2 cycle thresholds later) may be reported as Sensitive)	19.827	Resistant	21.753	Resistant	20.363	Resistant				
Gentamicin	30.09	Sensitive (Antimicrobial wells with pathogen load detected below the control wells (typically >2 cycle thresholds later) may be reported as Sensitive)	22.585	Resistant	24.165	Sensitive (Antimicrobial wells with pathogen load detected below the control wells (typically >2 cycle thresholds later) may be reported as Sensitive)	25.112	Sensitive (Antimicrobial wells with pathogen load detected below the control wells (typically >2 cycle thresholds later) may be reported as Sensitive)	22.64	Sensitive (Antimicrobial wells with pathogen load detected below the control wells (typically >2 cycle thresholds later) may be reported as Sensitive)	25.77	Sensitive (Antimicrobial wells with pathogen load detected below the control wells (typically >2 cycle thresholds later) may be reported as Sensitive)
Piperacillin/Tazobactam	29.64	Sensitive (Antimicrobial wells with pathogen load detected below the control wells (typically >2 cycle thresholds later) may be reported as Sensitive)	25.572	Sensitive (Antimicrobial wells with pathogen load detected below the control wells (typically >2 cycle thresholds later) may be reported as Sensitive)	22.685	Sensitive (Antimicrobial wells with pathogen load detected below the control wells (typically >2 cycle thresholds later) may be reported as Sensitive)	20.541	Sensitive (Antimicrobial wells with pathogen load detected below the control wells (typically >2 cycle thresholds later) may be reported as Sensitive)	26.05	Sensitive (Antimicrobial wells with pathogen load detected below the control wells (typically >2 cycle thresholds later) may be reported as Sensitive)	25.44	Sensitive (Antimicrobial wells with pathogen load detected below the control wells (typically >2 cycle thresholds later) may be reported as Sensitive)
